Among the data in patent US20240391959A1, “BICYCLIC PEPTIDE LIGANDS […] FOR TRANSFERRIN RECEPTOR 1 (TfR1)” (BicycleTx Limited, priority 2020, published 2024) are Kd and Ki values, retold here.

Common to all, as to format: binding
In one experiment the target is cynomolgus TfR1.
Experiment [1] deals with T1, human TfR1 (Homo sapiens, UniProt P02786). Put plainly: biochemical. Also on record: His6-tagged TfR1 (a.a. 89-760) (ACRO Biosystems, CD1-H5243 and TFR-C524a); His6; purchased R&D Systems or Acro Biosystems 2474-TR or CD1-H5243.
Experiment [2] has as its target T1, human TfR1. Put plainly: biochemical. Also on record: His6-tagged TfR1 (a.a. 89-760) (ACRO Biosystems, CD1-H5243 and TFR-C524a); His6; purchased R&D Systems or Acro Biosystems 2474-TR or CD1-H5243. The source holds these as a separate data set.

Where two headings read alike, the source gives them in different places. Starred links: 1 amine or outer side, 2 acyl side, 3 side chain; linkers in the order of their positions; H or OH if unused. Positions of bridges follow the written chain, without caps; N, C: chain ends. Residues, ends and D or L forms follow the SMILES beside them. TATB = O=C(C[*:1])N1CN(C(=O)C[*:2])CN(C(=O)C[*:3])C1

T1 sequence (P02786 89-760): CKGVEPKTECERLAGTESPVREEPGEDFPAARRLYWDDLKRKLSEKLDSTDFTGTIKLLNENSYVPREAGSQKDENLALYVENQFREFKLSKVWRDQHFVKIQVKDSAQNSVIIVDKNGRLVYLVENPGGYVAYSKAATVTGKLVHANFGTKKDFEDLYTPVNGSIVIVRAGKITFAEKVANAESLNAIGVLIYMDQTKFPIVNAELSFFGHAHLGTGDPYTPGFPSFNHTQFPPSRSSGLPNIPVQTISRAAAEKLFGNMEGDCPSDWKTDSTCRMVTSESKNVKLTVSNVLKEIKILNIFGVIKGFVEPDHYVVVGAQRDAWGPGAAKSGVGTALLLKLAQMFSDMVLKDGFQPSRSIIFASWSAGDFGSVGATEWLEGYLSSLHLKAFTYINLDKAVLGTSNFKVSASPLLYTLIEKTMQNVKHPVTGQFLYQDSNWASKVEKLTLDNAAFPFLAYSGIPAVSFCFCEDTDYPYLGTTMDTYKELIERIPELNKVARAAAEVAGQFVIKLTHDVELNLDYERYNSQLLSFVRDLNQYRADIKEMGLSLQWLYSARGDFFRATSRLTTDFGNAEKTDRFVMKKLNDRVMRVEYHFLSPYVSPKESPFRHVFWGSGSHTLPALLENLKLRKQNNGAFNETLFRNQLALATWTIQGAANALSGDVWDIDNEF

As for `CC[C@H](C)[C@@H]1NC(=O)[C@@H]2CSCC(=O)N3CN(CN(C3)C(=O)CSC[C@@H](C(=O)N[C@@H](C)C(N)=O)NC(=O)[C@H](Cc3ccc4ccccc4c3)NC(=O)[C@H](CO)NC1=O)C(=O)CSC[C@H](NC(=O)[C@H](C)N)C(=O)N[C@@H](CO)C(=O)N1CCC[C@H]1C(=O)N[C@@H](CC(=O)O)C(=O)N[C@@H](C)C(=O)N[C@@H](Cc1c[nH]cn1)C(=O)N[C@@H](CC(C)C)C(=O)NCC(=O)N2` [BCY16031, A-(SEQ ID NO: 36)-A], the Kd on cynomolgus TfR1 was found to be 6480 nM; at human TfR1 [2] (read-out: Human TfR1 Kd), 68 nM. Besides, the Ki on human TfR1 [1] (Geomean Ki (μM)) came to 0.119 µM.
Turning to `CC[C@H](C)[C@@H]1NC(=O)[C@@H]2CSCC(=O)N3CN(CN(C3)C(=O)CSC[C@@H](C(=O)N[C@@H](C)C(N)=O)NC(=O)[C@H](Cc3ccc(O)c(C(C)(C)C)c3)NC(=O)[C@H](CO)NC1=O)C(=O)CSC[C@H](NC(=O)[C@H](C)N)C(=O)N[C@@H](CO)C(=O)N1CCC[C@H]1C(=O)N[C@@H](CC(=O)O)C(=O)N[C@@H](C)C(=O)N[C@@H](Cc1c[nH]cn1)C(=O)N[C@@H](CC(C)C)C(=O)NCC(=O)N2` [BCY16079, A-(SEQ ID NO: 37)-A], the Kd on cynomolgus TfR1 amounted to 5660 nM; on human TfR1 [2] (Human TfR1 Kd (nM)), 60 nM.
With `CC[C@H](C)[C@@H]1NC(=O)[C@@H]2CSCC(=O)N3CN(CN(C3)C(=O)CSC[C@@H](C(=O)N[C@@H](CCC(=O)O)C(=O)N[C@@H](Cc3c[nH]cn3)C(=O)N[C@@H](CCC(N)=O)C(=O)N[C@@H](CCC(=O)O)C(N)=O)NC(=O)[C@H](Cc3ccc(O)cc3)NC(=O)[C@H](CO)NC1=O)C(=O)CSC[C@H](NC(=O)[C@H](C)N)C(=O)N[C@@H](CO)C(=O)N1CCC[C@H]1C(=O)N[C@@H](CC(=O)O)C(=O)N[C@@H](C)C(=O)N[C@@H](Cc1c[nH]cn1)C(=O)N[C@@H](CC(C)C)C(=O)NCC(=O)N2` [BCY17119, A-(SEQ ID NO: 9)-EHQE] (H-ACSPDAHLGCISYCEHQE-NH2; linker 2-10-14 via TATB), the values for the dissociation constant (Kd) on cynomolgus TfR1 and on human TfR1 [2] (Human TfR1 Kd (nM)) were 5650 nM and 212 nM, respectively. The compound also came in with a Ki on human TfR1 [1] (Geomean Ki (μM)) of 0.16 µM.
On to `CC[C@H](C)[C@@H]1NC(=O)[C@@H]2CSCC(=O)N3CN(CN(C3)C(=O)CSC[C@H](NC(=O)[C@H](CCSC)NC(=O)[C@H](Cc3c[nH]c4ccccc34)NC(=O)[C@@H](N)Cc3c[nH]cn3)C(=O)N[C@@H](CO)C(=O)N3CCC[C@H]3C(=O)N[C@@H](CC(=O)O)C(=O)N[C@@H](C)C(=O)N[C@@H](Cc3c[nH]cn3)C(=O)N[C@@H](CC(C)C)C(=O)NCC(=O)N2)C(=O)CSC[C@@H](C(=O)N[C@@H](C)C(N)=O)NC(=O)[C@H](Cc2ccc(O)cc2)NC(=O)[C@H](CO)NC1=O` [BCY17110, HWM-(SEQ ID NO: 9)-A] (H-HWMCSPDAHLGCISYCA-NH2; linker 4-12-16 via TATB), for which the Kd was 232 nM on cynomolgus TfR1 and 15 nM at human TfR1 [2] (Human TfR1 Kd (nM)). On human TfR1 [1] (Geomean Ki (μM)), this compound gave an inhibition constant (Ki) of 0.022 µM.
As for `CC[C@H](C)[C@@H]1NC(=O)[C@@H]2CSCC(=O)N3CN(CN(C3)C(=O)CSC[C@H](NC(C)=O)C(=O)N[C@@H](CO)C(=O)N[C@@H](C)C(=O)N[C@@H](CC(=O)O)C(=O)N[C@@H](C)C(=O)N[C@@H](Cc3c[nH]cn3)C(=O)N[C@@H](CC(C)C)C(=O)NCC(=O)N2)C(=O)CSC[C@@H](C(N)=O)NC(=O)[C@H](Cc2ccc(O)cc2)NC(=O)[C@H](CO)NC1=O` [BCY17987, Ac-(SEQ ID NO: 19)] (Ac-CSADAHLGCISYC-NH2; linker 1-9-13 via TATB), the Kd on cynomolgus TfR1 came to 5140 nM; at human TfR1 [2] (Human TfR1 Kd (nM)), 50 nM. The Ki on human TfR1 [1] (Geomean Ki (μM)) is 0.042 µM; at human TfR1 [1] (Human TfR1 Ki (nM)), 0.383 µM.
As to `CC[C@H](C)[C@@H]1NC(=O)[C@@H]2CSCC(=O)N3CN(CN(C3)C(=O)CSC[C@H](NC(=O)[C@H](Cc3ccccc3)NC(=O)[C@H](CO)NC(=O)[C@@H](N)CCC(=O)O)C(=O)N[C@@H](CO)C(=O)N3CCC[C@H]3C(=O)N[C@@H](CC(=O)O)C(=O)N[C@@H](C)C(=O)N[C@@H](Cc3c[nH]cn3)C(=O)N[C@@H](CC(C)C)C(=O)NCC(=O)N2)C(=O)CSC[C@@H](C(=O)N[C@@H](C)C(N)=O)NC(=O)[C@H](Cc2ccc(O)cc2)NC(=O)[C@H](CO)NC1=O` [BCY17113, ESF-(SEQ ID NO: 9)-A] (H-ESFCSPDAHLGCISYCA-NH2; linker 4-12-16 via TATB), the values for the Kd on cynomolgus TfR1 and on human TfR1 [2] (Human TfR1 Kd (nM)) were 1660 nM and 308 nM, respectively. Besides, the affinity at human TfR1 [1] (Geomean Ki (μM)), expressed as Ki, was 0.103 µM.
In the case of `CC[C@H](C)[C@@H]1NC(=O)[C@@H]2CSCC(=O)N3CN(CN(C3)C(=O)CSC[C@H](NC(C)=O)C(=O)N[C@@H](CO)C(=O)N3CC[C@H]3C(=O)N[C@@H](CC(=O)O)C(=O)N[C@@H](C)C(=O)N[C@@H](Cc3c[nH]cn3)C(=O)N[C@@H](CC(C)C)C(=O)NCC(=O)N2)C(=O)CSC[C@@H](C(N)=O)NC(=O)[C@H](Cc2ccc(O)cc2)NC(=O)[C@H](CO)NC1=O` [BCY17988, Ac-(SEQ ID NO: 44)], the Ki at human TfR1 [1] (Geomean Ki (μM)) was found to be 0.272 µM; on human TfR1 [1] (Human TfR1 Ki (nM)) it was 0.213 µM. In addition, the Kd on human TfR1 [2] (Human TfR1 Kd (nM)) worked out at 649 nM.
As for `CC[C@H](C)[C@@H]1NC(=O)[C@@H]2CSCC(=O)N3CN(CN(C3)C(=O)CSC[C@H](NC(=O)[C@H](CO)NC(=O)[C@@H](NC(=O)[C@@H](N)Cc3c[nH]cn3)[C@@H](C)O)C(=O)N[C@@H](CO)C(=O)N3CCC[C@H]3C(=O)N[C@@H](CC(=O)O)C(=O)N[C@@H](C)C(=O)N[C@@H](Cc3c[nH]cn3)C(=O)N[C@@H](CC(C)C)C(=O)NCC(=O)N2)C(=O)CSC[C@@H](C(=O)N[C@@H](C)C(N)=O)NC(=O)[C@H](Cc2ccc(O)cc2)NC(=O)[C@H](CO)NC1=O` [BCY17111, HTS-(SEQ ID NO: 9)-A] (H-HTSCSPDAHLGCISYCA-NH2; linker 4-12-16 via TATB), the Kd at cynomolgus TfR1 came out at 907 nM; on human TfR1 [2] (Human TfR1 Kd (nM)) it was 8.3 nM. On human TfR1 [1] (Geomean Ki (μM)), this compound had a Ki of 0.086 µM.
In the case of `CC[C@H](C)[C@@H]1NC(=O)[C@@H]2CSCC(=O)N3CN(CN(C3)C(=O)CSC[C@@H](C(=O)N3CCC[C@H]3C(=O)N[C@@H](Cc3c[nH]cn3)C(=O)N3CCC[C@H]3C(N)=O)NC(=O)[C@H](Cc3ccc(O)cc3)NC(=O)[C@H](CO)NC1=O)C(=O)CSC[C@H](NC(=O)[C@H](C)N)C(=O)N[C@@H](CO)C(=O)N1CCC[C@H]1C(=O)N[C@@H](CC(=O)O)C(=O)N[C@@H](C)C(=O)N[C@@H](Cc1c[nH]cn1)C(=O)N[C@@H](CC(C)C)C(=O)NCC(=O)N2` [BCY17115, A-(SEQ ID NO: 9)-PHP] (H-ACSPDAHLGCISYCPHP-NH2; linker 2-10-14 via TATB; N-terminus and C-terminus assumed), the Kd on cynomolgus TfR1 is 1240 nM; on human TfR1 [2] (Human TfR1 Kd (nM)) it was 60 nM. The Ki at human TfR1 [1] (Geomean Ki (μM)) and on human TfR1 [1] (Human TfR1 Ki (nM)) was 0.03 µM each time.
For the compound `CC[C@H](C)[C@@H]1NC(=O)[C@@H]2CSCC(=O)N3CN(CN(C3)C(=O)CSC[C@@H](C(=O)N[C@@H](CCC(=O)O)C(=O)N3CCCC[C@H]3C(=O)N[C@@H](Cc3c[nH]c4ccccc34)C(N)=O)NC(=O)[C@H](Cc3ccc(O)cc3)NC(=O)[C@H](CO)NC1=O)C(=O)CSC[C@H](NC(C)=O)C(=O)N[C@@H](CO)C(=O)N1CCC[C@H]1C(=O)N[C@@H](CC(=O)O)C(=O)N[C@@H](C)C(=O)N[C@@H](Cc1c[nH]cn1)C(=O)N[C@@H](CC(C)C)C(=O)NCC(=O)N2` [BCY18039, Ac-(SEQ ID NO: 9)-E[Pip]W], the Kd came out at 819 nM at cynomolgus TfR1 and 8.6 nM on human TfR1 [2] (Human TfR1 Kd (nM)). Moreover, the inhibition constant Ki at human TfR1 [1] (Geomean Ki (μM)) and at human TfR1 [1] (Human TfR1 Ki (nM)) was 0.008 µM throughout.
`CC[C@H](C)[C@@H]1NC(=O)[C@@H]2CSCC(=O)N3CN(CN(C3)C(=O)CSC[C@@H](C(=O)N[C@@H](C)C(N)=O)NC(=O)[C@H](Cc3ccncc3)NC(=O)[C@H](CO)NC1=O)C(=O)CSC[C@H](NC(=O)[C@H](C)N)C(=O)N[C@@H](CO)C(=O)N1CCC[C@H]1C(=O)N[C@@H](CC(=O)O)C(=O)N[C@@H](C)C(=O)N[C@@H](Cc1c[nH]cn1)C(=O)N[C@@H](CC(C)C)C(=O)NCC(=O)N2` [BCY16032, A-(SEQ ID NO: 48)-A]: the Kd on cynomolgus TfR1 worked out at 30000 nM; at human TfR1 [2] (Human TfR1 Kd (nM)), 305 nM. In addition, on human TfR1 [1] (Geomean Ki (μM)), the affinity, expressed as Ki, was 0.654 µM.
On to `CC[C@H](C)[C@@H]1NC(=O)[C@@H]2CSCC(=O)N3CN(CN(C3)C(=O)CSC[C@@H](C(=O)N[C@@H](C)C(N)=O)NC(=O)[C@H](Cc3ccc(O)cc3)NC(=O)[C@H](CO)NC1=O)C(=O)CSC[C@H](NC(=O)[C@H](C)N)C(=O)N[C@@H](CO)C(=O)N1C[C@H](O)C[C@H]1C(=O)N[C@@H](CC(=O)O)C(=O)N[C@@H](C)C(=O)N[C@@H](Cc1c[nH]cn1)C(=O)N[C@@H](CC(C)C)C(=O)NCC(=O)N2` [BCY16047, A-(SEQ ID NO: 15)-A], for which the values for the Kd on cynomolgus TfR1 and at human TfR1 [2] (read-out: Human TfR1 Kd) were 4830 nM and 49 nM, respectively. The Ki on human TfR1 [1] (Geomean Ki (μM)) turned out to be 0.133 µM; on human TfR1 [1] (Human TfR1 Ki (nM)) it was 0.042 µM.
With `CC[C@H](C)[C@@H]1NC(=O)[C@@H]2CSCC(=O)N3CN(CN(C3)C(=O)CSC[C@H](NC(=O)[C@H](CC(N)=O)NC(=O)[C@@H](Cc3c[nH]c4ccccc34)NC(=O)[C@H](CC(N)=O)NC(C)=O)C(=O)N[C@@H](CO)C(=O)N3CCC[C@H]3C(=O)N[C@@H](CC(=O)O)C(=O)N[C@@H](C)C(=O)N[C@@H](Cc3c[nH]cn3)C(=O)N[C@@H](CC(C)C)C(=O)NCC(=O)N2)C(=O)CSC[C@@H](C(N)=O)NC(=O)[C@H](Cc2ccc(O)cc2)NC(=O)[C@H](CO)NC1=O` [BCY18035, Ac-N[dW]N-(SEQ ID NO: 9)], binding at cynomolgus TfR1 was characterised by a dissociation constant (Kd) of 10300 nM. In addition, the affinity on human TfR1 [1] (Geomean Ki (μM)), expressed as Ki, was 0.02 µM.
